{"source": "patent US9157088B2", "about": "“Transferases, epimerases, polynucleotides encoding these and uses thereof” (priority 2007, dated 2015)", "molecules": {"B1": {"name": "At4g26850: GDP-L-Galactose Guanyltransferase, VTC2 from Arabidopsis thaliana (protein, listed as Arabidopsis thaliana)", "chain": "MLKIKRVPTVVSNYQKDDGAEDPVGCGRNCLGACCLNGARLPLYACKNLVKSGEKLVISHEAIEPPVAFLESLVLGEWEDRFQRGLFRYDVTACETKVIPGKYGFVAQLNEGRHLKKRPTEFRVDKVLQSFDGSKFNFTKVGQEELLFQFEAGEDAQVQFFPCMPIDPENSPSVVAINVSPIEYGHVLLIPRVLDCLPQRIDHKSLLLAVHMAAEAANPYFRLGYNSLGAFATINHLHFQAYYLAMPFPLEKAPTKKITTTVSGVKISELLSYPVRSLLFEGGSSMQELSDTVSDCCVCLQNNNIPFNILISDCGRQIFLMPQCYAEKQALGEVSPEVLETQVNPAVWEISGHMVLKRKEDYEGASEDNAWRLLAEASLSEERFKEVTALAFEAIGCSNQEEDLEGTIVHQQNSSGNVNQKSNRTHGGPITNGTAAECLVLQ"}}, "key": {"[1]": {"molecular_target": "T1, L-Galactose-1-Phosphate phosphatase (Arabidopsis thaliana, UniProt Q9M8S8)", "T1 construct": "made in house; host or cells: E. coli", "T1 sequence (Q9M8S8 1-271)": "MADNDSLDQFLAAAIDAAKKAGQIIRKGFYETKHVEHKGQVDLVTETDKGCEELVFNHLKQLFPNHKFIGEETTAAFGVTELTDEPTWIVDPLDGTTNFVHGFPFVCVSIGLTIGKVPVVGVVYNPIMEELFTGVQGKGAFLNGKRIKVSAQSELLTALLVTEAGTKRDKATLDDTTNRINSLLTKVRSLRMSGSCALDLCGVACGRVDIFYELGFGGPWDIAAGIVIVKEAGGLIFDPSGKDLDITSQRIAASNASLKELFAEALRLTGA", "conditions": "cited from earlier work"}, "[2]": {"molecular_target": "kiwifruit GDP-L-Galactose Guanyltransferase EST 319998 (Actinidia chinensis, UniProt A0A2R6QD99)", "sequence (A0A2R6QD99 entry or part of it)": "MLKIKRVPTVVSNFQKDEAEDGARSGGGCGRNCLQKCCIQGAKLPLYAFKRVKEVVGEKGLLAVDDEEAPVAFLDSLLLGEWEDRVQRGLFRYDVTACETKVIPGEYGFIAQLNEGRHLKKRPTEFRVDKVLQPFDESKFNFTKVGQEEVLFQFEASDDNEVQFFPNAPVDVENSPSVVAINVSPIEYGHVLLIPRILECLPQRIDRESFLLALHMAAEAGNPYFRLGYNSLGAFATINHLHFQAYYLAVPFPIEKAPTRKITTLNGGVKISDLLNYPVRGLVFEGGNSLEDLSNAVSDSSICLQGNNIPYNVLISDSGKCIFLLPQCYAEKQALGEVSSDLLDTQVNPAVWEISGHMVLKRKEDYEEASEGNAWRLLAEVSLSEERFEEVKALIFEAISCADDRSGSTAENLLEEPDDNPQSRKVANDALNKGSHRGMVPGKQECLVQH", "assay": "Continuous coupled assay of transferase activity with guanyl acceptors", "conditions": "sugar phosphate as guanyl acceptor, epimerase generated substrate", "method": "Expression of genes in E. coli. The EST 319998 from young fruit of Actinidia chinensis and At4g26850 were each cloned into pET30A (Novagene, USA), their sequence checked and expressed in E. coli. The N terminal His6 tag was used to purify the protein. An empty vector control was expressed and purified in parallel. Techniques were essentially as described earlier (Laing et al., 2004).\nL-Galactose dehydrogenase (Gen Bank accession AA018639 (EST 56121), 1.5 ug/assay) was cloned from an EST derived from an A. deliciosa (kiwifruit) shoot bud library with a maltose binding protein presequence and assayed as described previously (Laing et al., 2004). L-Galactose-1-Phosphate phosphatase was cloned from Arabidopsis thaliana (At3g02870, 3.1 ug/assay) and assayed as described (Laing et al., 2004). GDP-D-Mannose 3′,5′-Epimerase (198296) was cloned from dormant kiwifruit (A. deliciosa) buds three days after hydrogen cyanamide treatment and assayed as described (Wolucka et al., 2001). The former two enzymes are highly specific as to their substrates (Laing et al., 2004; Laing et al., 2004).\nThe assay for GDP-L-Galactose-1-Phosphate Guanyltransferase was run in 20 mM TrisCl, pH 8.0, GDP-L-Galactose, with 1 mM D-Mannose-1-Phosphate. […] In the latter case, 0.21 mg of epimerase was incubated with GDP-D-Mannose in 20 mM Tris Cl pH 8 in a total volume of 400 μL (see Wolucka et al., 2001) for 30 minutes at 20 C and then used directly in the assay at a 1 to 20 dilution. Assays were either terminated after 10 minutes by heating to 100 C for three minutes, or directly coupled to the phosphatase and L-Galactose dehydrogenase to measure product formation during the assay. Heat terminated assays were cooled on ice, centrifuged to remove precipitated protein and L-Galactose assayed using the coupling enzymes described above (see also (Laing et al., 2004)).\nThe applicants used two assays to characterise the enzyme, using two sources of the substrate GDP-L-Galactose. The first assay used the E. coli expressed coupling enzymes L-Galactose-1-Phosphate phosphatase and L-Galactose dehydrogenase. […] The applicants either measured the product formed by adding the coupling enzymes in the assay and measuring the time course of NADH formed, or by stopping the reaction after 10 minutes by boiling for 3 minutes and centrifuging. To this latter fixed time assay, the applicants then either adding coupling enzymes to measure L-Galactose production or using the LCMS to measure the products. The LCMS was used only to confirm the results of the coupled enzyme reaction and to measure the reverse reaction."}, "[3]": {"tested_on": "L-Galactose dehydrogenase", "conditions": "cited from earlier work"}, "[4]": {"assay": "Transferase activity of E. coli expressed enzymes (coupled reaction and LCMS)", "format": "biochemical", "conditions": "enzyme expressed in E. coli, His tag purified", "method": "Expression of genes in E. coli. The EST 319998 from young fruit of Actinidia chinensis and At4g26850 were each cloned into pET30A (Novagene, USA), their sequence checked and expressed in E. coli. The N terminal His6 tag was used to purify the protein. An empty vector control was expressed and purified in parallel. Techniques were essentially as described earlier (Laing et al., 2004). In much of this work the His-protein was further purified on a 5 mL HiTrap Q FF column (GE Healthcare), and identical results were obtained with both preparations.\nThe assay for GDP-L-Galactose-1-Phosphate Guanyltransferase was run in 20 mM TrisCl, pH 8.0, GDP-L-Galactose, with 1 mM D-Mannose-1-Phosphate. GDP-L-Galactose was either used directly from the Glycoteam product (in which case high backgrounds were observed due to contaminating L-Galactose-1-Phosphate) or GDP-L-Galactose was generated using the epimerase. In the latter case, 0.21 mg of epimerase was incubated with GDP-D-Mannose in 20 mM Tris Cl pH 8 in a total volume of 400 μL (see Wolucka et al., 2001) for 30 minutes at 20 C and then used directly in the assay at a 1 to 20 dilution. Assays were either terminated after 10 minutes by heating to 100 C for three minutes, or directly coupled to the phosphatase and L-Galactose dehydrogenase to measure product formation during the assay. Heat terminated assays were cooled on ice, centrifuged to remove precipitated protein and L-Galactose assayed using the coupling enzymes described above (see also (Laing et al., 2004)). Assays for L-Galactose were linear with added L-Galactose-1-Phosphate over the range measured. Backgrounds were run using the empty vector control, which gave the same result as a boiled enzyme control. […]\nThe applicants used two assays to characterise the enzyme, using two sources of the substrate GDP-L-Galactose. […] The applicants either measured the product formed by adding the coupling enzymes in the assay and measuring the time course of NADH formed, or by stopping the reaction after 10 minutes by boiling for 3 minutes and centrifuging. […]"}}}
{"molecule": "O=P(O)(O)OC1[C@@H](O)[C@H](O)C(O)[C@H](O)[C@@H]1O", "note": "(stereo partly drawn) [L-Myoinositol-1-P]", "values": [{"measurement": "dephosphorylation by L-Galactose-1-Phosphate phosphatase", "setting": "[1]", "result": "significantly dephosphorylating"}, {"measurement": "% of D-mannose-1P", "setting": "[2]", "result": 126, "unit": "%"}, {"measurement": "Rate", "setting": "[2]; N = 6", "result": 0.42, "unit": "nmoles/sec/ug protein"}]}
{"molecule": "O=C[C@H](O)[C@@H](O)[C@@H](O)[C@H](O)CO", "note": "[D-Galactose]", "values": [{"measurement": "reaction with L-Galactose dehydrogenase", "setting": "[3]", "result": "not reacting"}]}
{"molecule": "O=C[C@@H](O)[C@@H](O)[C@H](O)[C@H](O)CO", "note": "[D-Mannose]", "values": [{"measurement": "reaction with L-Galactose dehydrogenase", "setting": "[3]", "result": "not reacting"}]}
{"molecule": "B1", "values": [{"measurement": "GDP-L-Galactose Guanyltransferase activity of the expressed enzyme", "setting": "[4]", "result": "showed transferase activity"}, {"measurement": "GDP-L-Galactose Guanyltransferase activity of the expressed enzyme", "setting": "[4]; listed as At4g26", "result": "could catalyse the conversion of GDP-L-Galactose to L-Galactose-1-P"}]}
